Measured values taken from patent US20260355330A1, “CELL PENETRATING PEPTIDES AND USES THEREOF” (VECTIOPEP OÜ, priority 2022, published 2026).
Entries after “also recorded” stand apart in the source; their conditions may differ. Positions of bridges follow the written chain, without caps; N, C: chain ends. Non-standard residues stand in square brackets, D forms with d. Residues, ends and D or L forms follow the SMILES beside them. Chains are numbered I, II in the order given. *: point of attachment. Stearoyl = CCCCCCCCCCCCCCCCCC(=O)*; Dab = NCC[C@H](N)C(=O)O

Key:
[1] = tested on: liver, spleen, lung, kidney, heart and thymus of Balb/c mice; assay: Biodistribution of reporter levels post-transfection of mRNA or pDNA with CPPs in vivo (tissue homogenate)
Method: FIG. 3: Biodistribution of reporter levels post-transfection of mRNA or pDNA with NFs or PFs CPPs in vivo. Reporter gene product levels were evaluated from the whole tissue homogenates collected post mortem. Results are shown as the fold change to mRNA or pDNA treated mice.
(§1) The transfection complexes (CPP/mRNA) were formed using 10 μg of mRNA mixed with each peptide at indicated charge ratios (CRs) in MQ water in a final volume of 100 μl. CRs were calculated theoretically and account for both the positive charges of the peptide and negative charges of the nucleic acid. The transfection complexes (CPP/mRNA and CPP/pDNA) were formed using 50 μg of mRNA mixed with each peptide at indicated charge ratios (CRs) in MQ water in a final volume of 168 μl. The complexes were incubated for 30 minutes at room temperature and then mixed with equal volume of 10% glucose (resulting in a final solution of 5% glucose in a total volume of 200 μl for 10 μg dose groups and 336 μl for 50 μg dose groups) and immediately injected intravenously via the tail vein.
(§2) The reporter gene (luciferase) expression levels were evaluated from the tissue homogenate post mortem 16-24 h after single injection.
In order to determine to which organs in vivo mRNAs may be delivered to with NickFect or PepFect CPPs, mRNA complexes with NF55, NF71 and PF14 were formed and injected through the tail vein of Balb/c mice (FIG. 3A). The organs were harvested 24 hours after the single injection and reporter signal was measured from whole tissue homogenates. The biodistribution of reporter levels was measured in liver, spleen, lung, kidney, heart and thymus.
In order to compare the biodistribution profiles between harvested organs when using either mRNA or pDNA as cargo, NF424 was used to transfect these 2 types of nucleic acids in vivo (FIG. 3B and Table 4).

spleen of BALB/c mice = assay: In vivo delivery of mRNA with CPPs - reporter levels in the spleen; conditions: for Reporter levels in the spleen (RLU): mRNA, tail vein injection, spleens harvested 16 hours after single injection, whole tissue homogenate
Method: FIG. 5: Delivery of mRNA with CPPs in vivo—reporter levels in the spleen. Spleens were harvested post mortem 16 hours post-injection. The reporter levels (RLU) were evaluated from the whole tissue homogenate.
as §1, §2
CPPs and mRNA complexes were injected through the tail vein of BALB/c mice, spleens were harvested 16 hours after the single injection and reporter signal was measured from the whole tissue homogenate (FIG. 5 and Table 5).

CHO-K1 cells = assay: Delivery of reporter mRNA with CPPs in cell culture (luciferase luminescence 24 h post-transfection); type: cell-based; conditions: for Average RLU/mg (reporter levels post-transfection of mRNA): firefly luciferase mRNA, 0.1 μg per well, charge ratio 3:1, serum containing media, 24 h, RLU normalised to total protein in lysate; for Efficiency of mRNA transfection/delivery: FIG. 1 / Table 2, cell culture; for Delivery of mRNA compared to NF55: comparator NF55
Method: FIG. 1: Delivery of reporter mRNA with CPPs in cell culture—evaluation of reporter levels post-transfection (relative light units normalised to total protein in the cell lysate (RLU/mg)). Naked mRNA treated cells were used as controls and Lipofectamine3000 (LF3000) was used to compare the transfection efficacy with a liposome-based transfection reagent.
Adherent CHO-K1 cells were grown in Dulbecco's Modified Eagle's Medium (DMEM), which were supplemented with 0.1 mM non-essential amino acids, 1.0 mM sodium pyruvate, 100 U/ml penicillin, and […]. For complete media, 10% (final) fetal bovine serum (FBS) was added. Cells were maintained in a humidified incubator at 37 °C, 5% CO2. Cell viability and confluence was assessed daily and the cell density was reduced regularly. For cell counting, we used the CytoSMART cell counter accompanied by 0.4% trypan blue staining prior measurement. The multi-well plates with cell cultures used for experiments were incubated in a humidified incubator at 37 °C, 5% CO2.
For in vitro experiments 0.1 μg of nucleic acid (plasmid DNA (pDNA) or mRNA) was used per 96-well plate well. For CPP/NA complex formation, the diluted NA was mixed with CPP in water. Complexes were formed based on the theoretical charge ratio (CR) of positive charges from the peptide in excess to the negative charges from nucleic acid backbone, at charge ratio 3:1 with peptide in excess. Commercial reagent Lipofectamine3000 (LF3000) was used according to the manufacturer's recommendations for the transfection of adherent cells.
For reporter luminescence (expressed from firefly luciferase encoding mRNA or plasmid pDNA) assessment in adherent cell culture, 10,000 cells per 96-well plate well were seeded in 100 μl of media one day prior to transfection. Shortly before transfection, cell media was replaced with 100 μl of serum containing (10% foetal bovine serum) DMEM media. CPPs and mRNA or pDNA were mixed at a charge ratio 3:1 in ultrapure water and incubated at room temperature before addition to cells in serum containing media. Cells were transfected with 0.1 μg of mLuc per well.
24 hours post-transfection, the media was aspirated, cells were washed with 1×PBS, and 30 μl of lysis buffer (0.1% Triton X100 in 1×PBS) was added. Cells were incubated with lysis buffer for 20 min. to lyse the cells. From the lysate, 20 μl was transferred to a black frame white well 96-well plate for luminescence measurement after addition of substrate luciferin (PerkinElmer) in buffer. The luminescence signal was detected with GloMax® 96 microplate luminometer equipped with GloMax® 1.9.2 software (Promega). RLU values were converted to RLU/mg by normalization to total protein in cell lysate, reflecting total number of cells. For protein detection, a Pierce™ BCA Protein Assay Kit was used.
The present inventors have previously reported CPPs developed from the NickFect (NF) and PepFect (PF) families for plasmid (pDNA), siRNA and miRNA delivery (see, e.g. WO 2020/144317, WO 2010/039088 and WO 2012/113846). With the emergence of mRNA-based therapeutics, it was decided to investigate peptides for their ability to deliver mRNA. It was assumed that CPPs that are efficient for siRNA and miRNA delivery, e.g. histidine containing CPPs (Porosk et. al. (2019)), may be good candidates for the delivery of mRNA. Therefore, CPPs from each main family (NF55-, PF14- and NF70-derived CPPs) were tested for mRNA delivery/transfection. Naked mRNA treated and untreated cells were used as control groups. LF3000 was used to compare the transfection efficacy of liposome-based transfection reagents with the CPPs (FIG. 1).

BALB/c mice = assay: Live animal imaging 1-48 hours post administration of NF424/mRNA or NF424/pDNA complexes; type: in vivo
Method: FIG. 4: Live animal imaging 1-48 hours post administration of NF424/mRNA or NF424/pDNA complexes. Reporter gene product levels were evaluated with full body imager at 1 h, 6 h, 12 h, 24 h, and 48 h post-injection.
as §1
100 μl of luciferin (PerkinElmer), at a concentration of 15 mg/ml, was intraperitoneally injected into the mice. After 10 min, the mice were imaged using the In Vivo Imaging System (IVIS Lumina II, PerkinElmer).
Live animal imaging was used to track the timepoints of mRNA and pDNA transfection with NFs (FIG. 4). The CPP used was NF424, complexes were formed in parallel with mRNA or pDNA and injected through the tail vein of BALB/c mice. The reporter gene expression levels were evaluated with full body imager at 1 h, 6 h, 12 h, 24 h and 48 h post-injection.

[2] = in words; previously reported; cited from earlier work
[3] = in words; previously reported; cited from earlier work; remark: listed apart in the source
[4] = NF424 delivery of mRNA, fold change to mRNA treated mice
[5] = NF424 delivery of pDNA, fold change to pDNA treated mice

CCCCCCCCCCCCCCCCCC(=O)N[C@@H](C)C(=O)NCC(=O)N[C@@H](Cc1ccc(O)cc1)C(=O)N[C@@H](CC(C)C)C(=O)N[C@@H](CC(C)C)C(=O)NCC(=O)NCC[C@H](N)C(=O)N[C@@H](CC(C)C)C(=O)N[C@@H](CCCCN)C(=O)N[C@@H](C)C(=O)N[C@@H](CC(C)C)C(=O)N[C@@H](C)C(=O)N[C@@H](C)C(=O)N[C@@H](CC(C)C)C(=O)N[C@@H](C)C(=O)N[C@@H](CCCCN)C(=O)N[C@@H](C)C(=O)N[C@H](C(=O)N[C@@H](CC(C)C)C(N)=O)[C@@H](C)CC [NF424] (I: H-[Dab]LKALAALAKAIL-NH2 / II: Stearoyl-AGYLLG; amide I:1-II:C)
Fold/mRNA, Liver [1, 4]: 9 Fold
Fold/mRNA, Lung [1, 4]: 98 Fold
Fold/mRNA, Spleen [1, 4]: 8 330 Fold
Fold/pDNA, Liver [1, 5]: 2 Fold
Fold/pDNA, Lung [1, 5]: 11 Fold
Fold/pDNA, Spleen [1, 5]: 5 Fold
Organ distribution of mRNA delivery ([1]; in words, mRNA cargo): the highest expression levels were found in the spleen of treated mice
Organ distribution of pDNA delivery ([1]; in words, pDNA cargo): the main expression was found in lungs and liver
Efficacy of mRNA delivery into the spleen in vivo (spleen of BALB/c mice; in words, FIG. 5 / Table 5): highest reporter levels after mRNA delivery into the spleen in vivo
Delivery of mRNA in vivo compared to NF54 and/or NF55 (spleen of BALB/c mice; in words, comparator NF54 and/or NF55): significantly improved delivery of mRNA in vivo over both NF54 and NF55
Reporter levels in the spleen (RLU) (spleen of BALB/c mice): 427 566 RLU
Average RLU/mg (reporter levels post-transfection of mRNA) (CHO-K1 cells): 2 590 000 000 RLU/mg
Efficiency of mRNA transfection/delivery (CHO-K1 cells; in words): the most efficient
Delivery of mRNA compared to NF54 (CHO-K1 cells; in words, comparator NF54): good improvement in delivery of cargo such as mRNA over NF54
Delivery of mRNA compared to NF55 (CHO-K1 cells; in words): significantly improved delivery of mRNA over NF55
Time at which reporter signal was detected in the spleens (BALB/c mice; NF424/mRNA complexes, 10 μg mRNA, tail vein): ≤ 1 h
Time at which reporter signal was visible in the lungs (BALB/c mice; NF424/pDNA complexes, 50 μg pDNA, tail vein): 6 h
Detected signal, mRNA vs pDNA (BALB/c mice; in words, 10 μg mRNA vs 50 μg pDNA): the detected signal was much higher from mRNA
Main organ of mRNA delivery (live imaging) (BALB/c mice; in words, mRNA cargo): delivers mRNA mostly to the spleen
Main organ of pDNA delivery (live imaging) (BALB/c mice; in words, pDNA cargo): pDNA to the lungs

CCCCCCCCCCCCCCCCCC(=O)N[C@@H](C)C(=O)NCC(=O)N[C@@H](Cc1ccc(O)cc1)C(=O)N[C@@H](CC(C)C)C(=O)N[C@@H](CC(C)C)C(=O)NCC(=O)NCC[C@H](N)C(=O)N[C@H](C(=O)N[C@@H](CC(N)=O)C(=O)N[C@@H](CC(C)C)C(=O)N[C@@H](CCCCN)C(=O)N[C@@H](C)C(=O)N[C@@H](CC(C)C)C(=O)N[C@@H](C)C(=O)N[C@@H](C)C(=O)N[C@@H](CC(C)C)C(=O)N[C@@H](C)C(=O)N[C@@H](CCCCN)C(=O)N[C@@H](C)C(=O)N[C@H](C(=O)N[C@@H](CC(C)C)C(N)=O)[C@@H](C)CC)[C@@H](C)CC [NF553]
Reporter levels in the spleen (RLU) (spleen of BALB/c mice): 57 989 RLU
Average RLU/mg (reporter levels post-transfection of mRNA) (CHO-K1 cells): 1 750 000 000 RLU/mg
Efficiency of mRNA transfection/delivery (CHO-K1 cells; in words): the most efficient
Delivery of mRNA compared to NF55 (CHO-K1 cells; in words): improved delivery of mRNA over NF55

CCCCCCCCCCCCCCCCCC(=O)N[C@@H](C)C(=O)NCC(=O)N[C@@H](Cc1ccc(O)cc1)C(=O)N[C@@H](CC(C)C)C(=O)N[C@@H](CC(C)C)C(=O)NCC(=O)NCCCC[C@H](N)C(=O)N[C@H](C(=O)N[C@@H](CC(N)=O)C(=O)N[C@@H](CC(C)C)C(=O)N[C@@H](CCCCN)C(=O)N[C@@H](C)C(=O)N[C@@H](CC(C)C)C(=O)N[C@@H](C)C(=O)N[C@@H](C)C(=O)N[C@@H](CC(C)C)C(=O)N[C@@H](C)C(=O)N[C@@H](CCCCN)C(=O)N[C@@H](C)C(=O)N[C@H](C(=O)N[C@@H](CC(C)C)C(N)=O)[C@@H](C)CC)[C@@H](C)CC [NF554] (I: H-KINLKALAALAKAIL-NH2 / II: Stearoyl-AGYLLG; amide I:1-II:C)
Reporter levels in the spleen (RLU) (spleen of BALB/c mice): 83 650 RLU
Average RLU/mg (reporter levels post-transfection of mRNA) (CHO-K1 cells): 1 690 000 000 RLU/mg
Efficiency of mRNA transfection/delivery (CHO-K1 cells; in words): the most efficient
Delivery of mRNA compared to NF55 (CHO-K1 cells; in words): improved delivery of mRNA over NF55

CCCCCCCCCCCCCCCCCC(=O)N[C@@H](C)C(=O)NCC(=O)N[C@@H](Cc1ccc(O)cc1)C(=O)N[C@@H](CC(C)C)C(=O)N[C@@H](CC(C)C)C(=O)NCC(=O)N[C@@H](CCN)C(=O)N[C@H](C(=O)N[C@@H](CC(N)=O)C(=O)N[C@@H](CC(C)C)C(=O)N[C@@H](CCCCN)C(=O)N[C@@H](C)C(=O)N[C@@H](CC(C)C)C(=O)N[C@@H](C)C(=O)N[C@@H](C)C(=O)N[C@@H](CC(C)C)C(=O)N[C@@H](C)C(=O)N[C@@H](CCCCN)C(=O)N[C@@H](C)C(=O)N[C@H](C(=O)N[C@@H](CC(C)C)C(N)=O)[C@@H](C)CC)[C@@H](C)CC [NF559]
Reporter levels in the spleen (RLU) (spleen of BALB/c mice): 56 280 RLU
Average RLU/mg (reporter levels post-transfection of mRNA) (CHO-K1 cells): 563 000 000 RLU/mg

NF70: SEQ ID NO: 13; HHHHYHHGO*ILLKALKALAKAIL; control/comparator construct [reference compound]
Reporter levels in the spleen (RLU) (spleen of BALB/c mice): 8 000 RLU
miRNA delivery efficiency [2]: very efficient for siRNA and miRNA delivery
Average RLU/mg (reporter levels post-transfection of mRNA) (CHO-K1 cells): 919 720 RLU/mg
Efficiency of mRNA transfection/delivery (CHO-K1 cells; in words): not efficient for mRNA delivery
siRNA delivery efficiency [3]: very efficient for siRNA and miRNA delivery; also recorded: the most efficient, even more efficient than NF55
